Two compounds from patent US9644240B2, “Disease susceptibility” (Leiden University, priority 2009, dated 2017) can be followed below.

Where a chain is given by its changes, count along the chain named.

The subject of one experiment is four MR haplotypes. Nature of the experiment: Ligand induced transactivation on a TAT-3 promoter in Cos-1 cells, comparison among haplotypes. To be noted: for difference in transactivation responses among the four MR haplotypes: reporter (fluc)/control (rluc) ratios, three experiments pooled. In kind it is cell-based, human. On the procedure: (§1) Cos-1 cells (African green monkey kidney cells) were cultured in DMEM high glucose supplemented with 10% FCS (Gibco, Paisley, UK). Cells were seeded in 24-well plates (Greiner Bio-One, Alphen a/d Rijn, The Netherlands) at 3×10^4 cells/well in DMEM supplemented with charcoal-stripped serum. The cells were transfected the next day using SuperFect (Qiagen, Venlo, The Netherlands). hMR plasmids and the reporter plasmid TAT3-Luc (tyrosine amino transferase triple hormone response element) were used at 100 ng/well. The control plasmid pCMV-R (Promega, Leiden, The Netherlands) coding for Renilla luciferase controlled by cytomegalovirus (CMV) promoter was used (10 ng/well). One day after transfection, the cells were treated with cortisol (Sigma-Aldrich, Zwijndrecht, the Netherlands) in concentrations ranging from 0 to 10^−8 M. After 24 h of incubation the cells were harvested in passive lyses buffer (Promega) and firefly and Renilla luciferase activity was determined using a dual label reporter assay (Promega) and a luminometer (CENTRO XS3 LB960, Berthold, Bad Wildbad, Germany). Three separate experiments were performed and all three experiments were performed in triplicate.
(§2) The in vitro experiments were analyzed using GraphPad prism 4 (GraphPad software Inc, San Diego, Calif.). In the transactivation assays firefly/renilla luciferase ratios were normalized against the highest signal and background expression was subtracted. MR protein expression measured by western blot was normalized against γ-Tubulin. The differences between the four hMR variants were analyzed with one and two-way ANOVAs with Bonferroni posttests. In the radioligand binding assay one-binding-site curve fitting was used to determine the dissociation constant (Kd) and maximal binding (Bmax). The specific MR cortisol binding was obtained by subtracting the non-specific binding from the total binding. The difference in Kd and Bmax between MRI180 and MR180V was tested with a t-test. In vitro results are shown as the mean±SD.

A further experiment has as its target T1, MRI180 (Homo sapiens, UniProt P08235).
T1 construct: expressed in transfected cells; host or cells: Cos-1 cells (African green monkey kidney)
T1 sequence (P08235 1-984): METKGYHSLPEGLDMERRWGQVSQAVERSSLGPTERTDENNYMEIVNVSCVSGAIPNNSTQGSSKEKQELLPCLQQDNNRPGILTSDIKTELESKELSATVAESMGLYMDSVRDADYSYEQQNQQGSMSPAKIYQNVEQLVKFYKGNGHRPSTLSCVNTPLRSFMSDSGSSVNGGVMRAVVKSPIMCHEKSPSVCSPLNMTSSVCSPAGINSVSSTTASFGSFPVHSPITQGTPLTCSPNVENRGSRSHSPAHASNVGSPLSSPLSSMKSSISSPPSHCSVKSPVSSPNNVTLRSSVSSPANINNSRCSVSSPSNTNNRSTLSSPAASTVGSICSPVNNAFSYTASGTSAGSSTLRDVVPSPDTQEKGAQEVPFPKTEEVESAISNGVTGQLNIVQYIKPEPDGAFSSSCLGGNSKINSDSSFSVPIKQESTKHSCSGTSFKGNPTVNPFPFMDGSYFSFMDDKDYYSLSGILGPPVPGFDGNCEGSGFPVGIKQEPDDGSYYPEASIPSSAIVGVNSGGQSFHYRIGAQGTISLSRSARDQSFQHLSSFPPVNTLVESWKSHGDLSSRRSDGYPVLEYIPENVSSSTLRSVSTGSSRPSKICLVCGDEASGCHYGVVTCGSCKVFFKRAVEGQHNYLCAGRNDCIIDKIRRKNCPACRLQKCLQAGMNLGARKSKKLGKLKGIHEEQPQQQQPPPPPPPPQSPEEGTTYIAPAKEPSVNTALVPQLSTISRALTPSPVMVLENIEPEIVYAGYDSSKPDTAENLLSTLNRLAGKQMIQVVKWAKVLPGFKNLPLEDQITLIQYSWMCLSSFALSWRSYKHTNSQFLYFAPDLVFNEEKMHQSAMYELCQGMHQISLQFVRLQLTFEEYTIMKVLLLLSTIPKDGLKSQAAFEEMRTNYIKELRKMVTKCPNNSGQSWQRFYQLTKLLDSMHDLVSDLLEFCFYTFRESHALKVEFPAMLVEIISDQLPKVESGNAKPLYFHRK
Nature of the experiment: [3H]Cortisol ligand binding assay, cytosol of transfected Cos-1 cells. To be noted: MRI180, mean±SD. On the procedure:
(§3) Cos-1 cells were seeded in 20 cm plates (Greiner Bio-One, Alphen a/d Rijn, The Netherlands) at 2×10^6 cells/plate in DMEM supplemented with 5% charcoal-stripped serum. Cells were transfected the next day using Mirus Transit-COS reagent according to the manufacturer's protocol (Sopachem, Ochten, The Netherlands) and hMR plasmids were used at 30 μg/plate. After 24 hours medium was replaced with serum free DMEM and after another 24 hours cells were pelleted. All further steps are carried out at 0° C. Cells were resuspended in 3.5 ml buffer (5 mM Tris-HCl (pH 7.4), 1 mM EDTA, 1 mM B-Mercaptoethanol, 10 mM Na-Molybdate, 5% glycerol) per plate and 3×15 seconds homogenised using an electric homogenizer (Pro200, Pro scientific, Oxford, Conn., USA). The homogenate was centrifuged (100.000×g, 2° C.) to obtain cytosol.
(§4) 200 μl cytosol was incubated with [^3H]Cortisol (70 Ci/mmol, Amersham, Buckinghamshire, UK) to asses total binding or [^3H]Cortisol and a 500 fold excess of dexamethasone (Sigma-Aldrich, Zwijndrecht, the Netherlands) to asses non-specific binding. [^3H]Cortisol was used at 0.5 nM, 1 nM, 1.5 nM, 2.5 nM, 3.5 nM, 5 nM. After vortexing and 3 hours incubation on ice bound and free [^3H]Cortisol fractions were separated by Sephadex LH-20 as described previously (de Kloet et al., 1975). Fractions containing the receptor bound radioligand were collected, vortexed with 3 ml Ultima Gold scintillation fluid (Perkin Elmer, Waltham, Mass., USA) and radioactivity was measured in a liquid scintillation analyzer (1900CA Packard, Perkin Elmer). Three separate experiments were performed and all three experiments were performed in triplicate.
as §2, with “binding.” for “binding. The difference in Kd and Bmax between MRI180 and MR180V was tested with a t-test. In vitro results are shown as the mean±SD.”

The target in another experiment is T2, MR180V (Homo sapiens, UniProt P08235).
T2 construct: expressed in transfected cells; host or cells: Cos-1 cells (African green monkey kidney)
T2 sequence (P08235 1-984): T1 sequence (P08235 1-984)
The description is as above. To be noted: mean±SD. The method, then:
as §3, §4
as §2, with “binding.” for “binding. The difference in Kd and Bmax between MRI180 and MR180V was tested with a t-test. In vitro results are shown as the mean±SD.”

The next experiment addresses T3, MR Hap 3 (CG) (Homo sapiens, UniProt P08235).
T3 construct: expressed in transfected cells; host or cells: Cos-1 cells (African green monkey kidney)
T3 sequence (P08235 1-984 V241A): T1 sequence (P08235 1-984) with V241A
In words: Cortisol-induced transactivation assay, TAT3-Luc reporter in Cos-1 cells. Type of experiment: cell-based. The following applies: TAT-3 promoter, 24 h, read-out: EC50 of cortisol-induced luciferase transcription. On the procedure:
as §1
as §2, with “binding.” for “binding. The difference in Kd and Bmax between MRI180 and MR180V was tested with a t-test. In vitro results are shown as the mean±SD.”

Another experiment has as its target T4, MR Hap 1 (GA) (Homo sapiens, UniProt P08235).
T4 construct: expressed in transfected cells; host or cells: Cos-1 cells (African green monkey kidney)
T4 sequence (P08235 1-984): T1 sequence (P08235 1-984)
The description is as above. Type of experiment: cell-based. To be noted: TAT-3 promoter, 24 h, read-out: EC50 of cortisol-induced luciferase transcription. On the procedure:
as §1
as §2, with “binding.” for “binding. The difference in Kd and Bmax between MRI180 and MR180V was tested with a t-test. In vitro results are shown as the mean±SD.”

For another experiment, the target named is T5, MR Hap 2 (CA) (Homo sapiens, UniProt P08235).
T5 construct: expressed in transfected cells; host or cells: Cos-1 cells (African green monkey kidney)
T5 sequence (P08235 1-984): T1 sequence (P08235 1-984)
The experiment is described as above. In kind it is cell-based. The following applies: TAT-3 promoter, 24 h, read-out: EC50 of cortisol-induced luciferase transcription. On the procedure:
as §1
as §2, with “binding.” for “binding. The difference in Kd and Bmax between MRI180 and MR180V was tested with a t-test. In vitro results are shown as the mean±SD.”

The next experiment has as its target T6, MR Hap 4 (GG) (Homo sapiens, UniProt P08235).
T6 construct: expressed in transfected cells; host or cells: Cos-1 cells (African green monkey kidney)
T6 sequence (P08235 1-984 V241A): T1 sequence (P08235 1-984) with V241A
The experiment is described as above. To be noted: TAT-3 promoter, 24 h, read-out: EC50 of cortisol-induced luciferase transcription. In kind it is cell-based. On the procedure:
as §1
as §2, with “binding.” for “binding. The difference in Kd and Bmax between MRI180 and MR180V was tested with a t-test. In vitro results are shown as the mean±SD.”

Setting [1] is: three experiments pooled, read-out: dissociation constant (Kd) of cortisol binding.

Turning to `C[C@]12CCC(=O)C=C1CC[C@@H]1[C@@H]2[C@@H](O)C[C@]2(C=O)[C@@H](C(=O)CO)CC[C@@H]12` [Aldosterone], the “difference in transactivation responses among the four MR haplotypes” value in the experiment on four MR haplotypes is listed as “did not show significantly different responses”.

`C[C@]12CCC(=O)C=C1CC[C@@H]1[C@@H]2[C@@H](O)C[C@@]2(C)[C@H]1CC[C@]2(O)C(=O)CO` [cortisol]: the “maximal binding (Bmax) of cortisol” value on MRI180 was found to be 6539±499 binding sites/cell; at MR180V, 7112±371 binding sites/cell. For the same compound, the values for the Kd on MRI180 (setting [1]) and on MR180V (setting [1]) were 0.86 ± 0.2 nM and 0.93 ± 0.16 nM, respectively. In addition, in the experiment on four MR haplotypes (Hap 1 (GA) and 4 (GG) compared with Hap 2 (CA) and 3 (CG)), the “maximal luciferase expression (Emax)” value is “significant lower maximal luciferase expression (Emax)”. In the experiment with four MR haplotypes, the “difference in transactivation responses among the four MR haplotypes” value is reported as “significantly different responses”. Further, the EC50 (in general, the concentration at which the effect is half-maximal) on MR Hap 3 (CG) turned out to be 0.019 nM; at MR Hap 1 (GA), 0.039 nM; on MR Hap 2 (CA), 0.017 nM; on MR Hap 4 (GG), 0.073 nM.
